Paper PMC11468675, “Near‐Infrared Bodipy‐Based Molecular Rotors for β‐Amyloid Imaging In Vivo” (Advanced Healthcare Materials, 2023)
Values joined by “and” are separate entries in the source; they are usually repeats but may differ in a detail not shown here. Equal entries are not always repeated.

Experiments:
Cytotoxicity MTT assay = type: cell-based; details: rat, PC12 cells, read-out: Cell viability
Method: The cells used for the cyt otox icit y t est were PC12, purchased from the Chinese National Infrastructure of Cell Line Resource. The experiment was divid ed into two parts, cell culture, and c yt otox icit y test. The PC12 cells were first cultured in cell culture fluid (high-glucose DMEM/heat-inactivated FBS/ heat-inactivated HS /penicillin and streptomycin = 100: 5: 5: 1, v/v) under 5% CO2 at 37 °C. After a period of incubation, PC12 were transferred into a sterile 96-well plate (1 × 10^4 cells per well) and cultured
for 24 h under 5% CO2 at 37 °C. After that, the cell culture fluid was removed, and gradient concentrations of probes (TP yrBDP, TPipBDP, THAIBDP), Aβ in the cell culture fluid (0, 2, 5, 10, 12, and 15 μM), or probes+ Aβ in th e cell culture fluid (5 μM probe + 10 μM Aβ) were added into the 96-well plate and incubat ed for another 24 h.
After that, the gradient concentration of probes or Aβ was removed and MTT (5× MTT was diluted into 1× MTT using dilution buffer, 50 μL per well) was added; t he mix ture was incubated at 37 °C for 4 h. The supernatant was removed, and form azan (150 μL per well) was added; the mix ture was placed on a shaker to be mix ed well. The cell viabilit y was determined by a microplate reader at 490 nm.

Aβ1–42 aggregates [1] = target: T1, Aβ1–42 aggregates (Homo sapiens, UniProt P05067); test: Fluorescence enhancement assay with Aβ aggregates; type: binding; details: for Em, with Aβ / Em shift, with Aβ: 10% ethanol/PBS; for Em shift, with Aβ: + red shift, − blue shift; for Fluorescence enhancement (Fold = FL intensity probe+Aβ / probe): probe 1 μM in 10% EtOH/PBS, Aβ aggregates 33 µg mL−1
T1 construct: purchased Shanghai Macklin Biochemical Technology Co., Ltd
Description: Thioflavin‐T (ThT) is the gold standard probe, commonly used as an in vitro fluorescence stain to determine the existence of Aβ aggregates. The ThT probe has a typical D–A structure, and its HOMO and LUMO electron clouds are redistributed from the donor (HOMO) to the acceptor (LUMO), which is typical for ICT probes.^[ [46] ^] In addition, the single bond between the benzene ring in the ThT probe and the benzothiazole salt, and the N,N‐dimethylamino group attached to the benzene ring can rotate freely, resulting in ThT becoming a molecular rotor. After ThT binds to Aβ, the rotation of the molecular rotor is restricted, and most of the electrons in the excited state return to the ground state by radiative transition, resulting in a substantial increase in fluorescence. […] The fluorescence response of TPyrBDP, TPipBDP, and THAIBDP with Aβ1–42 aggregates and BSA was evaluated in PBS (10% ethanol) solution. The formation of Aβ1–42 aggregates was characterized by TEM. The morphology of Aβ1–42 aggregates was filamentous (Figure S25b, Supporting Information), while the morphology of Aβ1–42 oligomers was a point‐like structure with a minimum diameter 44 nm (Figure S25a, Supporting Information). The images confirmed that Aβ1–42 aggregates were prepared successfully. As shown in Figure 2c‐f and Table S1, Supporting Information, a 42.5‐fold enhancement of fluorescence was observed when TPyrBDP interacted with the Aβ1–42 aggregates. […] The results confirmed the calculation results in Figure 1. […] In Figure 1b, the three probes are inserted into the hydrophobic pocket of Aβ1–42 aggregates when they interact with Aβ1–42 aggregates, resulting in changes of λ em. The fluorescence response of BSA with probes may cause non‐specific fluorescence enhancement, thus generating false signals. Therefore, we evaluated the interaction between the three probes and BSA. […] The selectivity of TPyrBDP, TPipBDP, and THAIBDP to different ions and amino acids was also evaluated. […] The ions and amino acids had no influence on the fluorescence enhancement of the probes. To quantify the binding affinity (K d) of the probes to Aβ1–42 aggregates, fluorescence‐based saturation binding assays were conducted using Aβ1–42 aggregates. The lower the K d values, the better the affinities.
To a solution of HFIP (600 μL) was added hum an Aβ42 (1 mg). After that, the solution was ultrasonicall y t reated for 2 min to destroy the oligomer probabl y formed, followed b y placing the mixture into an ice bath for 2 h. The solution was dispensed 20 μL per cent rifuge tube, dried by nitro gen, and stored at −80 °C.
To a centrifuge tube (containing 33 μg of Aβ42) was added 540 μL of PBS and 1% hydrox yl amine solution (60 μL); the solution was s haken on a shaker (300 rpm) at 37 °C for 72-96 h to form the Aβ42 aggregates. The Aβ42 aggregates were characterized by transmission electron microscop y (TEM).
Fluorescence Enhancement Assay
To a solution of probes were added pretreated Aβ42 aggregates (33 μg) or bovine serum albumin (BSA). The mix ture (the final concentration of probes was 1μM in 10% EtOH/PBS) was immediatel y transferred to a fluorescence spectrophot ometer (U-3900H, HITACHI, J apan) to record their spectrum (Ex slit = 10 nm, Em slit = 20 nm).
The probes alone (1μM in 10% EtOH/PBS), PBS, and BSA were also tested under the same conditions. The fluorescence enhancem ent was calculated usin g the followin g formula: fold = the fluorescence intensit y of the probe with Aβ42 or BSA/the fluorescence intensit y of probe alone. […]
(1 picture or pasted object on this page, not shown here)

Aβ1–42 aggregates [2] = target: T1, Aβ1–42 aggregates; test: Fluorescence-based saturation binding assay; details: 10% EtOH/PBS, triplicate
[3] = tested on: Aβ1–42 aggregates in PC12 cells; test: Cell imaging of Aβ1–42 aggregates, co-staining with ThT; type: cell-based
Description: PC12 cells were used to study the affinity between TPipBDP and Aβ1–42 aggregates. Aβ1–42 aggregates have great neurotoxicity to interfere with the normal function of the brain. […] To study the imaging of TPipBDP with Aβ1–42 aggregates, the imaging effect of TPipBDP with Aβ1–42 aggregates was studied in PC12 cells. […] After adding Aβ1–42 aggregates to PC12 cells, some smaller‐than‐cell green fluorescence (ThT) and red fluorescence (TPipBDP) spots were observed. These smaller‐than‐cell bright fluorescence spots were Aβ1–42 aggregates. The Aβ1–42 aggregates can be clearly observed in the bright field image. […]
After that, the gradient concentration of probes or Aβ was removed and MTT (5× MTT was diluted into 1× MTT using dilution buffer, 50 μL per well) was added; t he mix ture was incubated at 37 °C for 4 h. […] The cell viabilit y was determined by a microplate reader at 490 nm.
To a centrifuge tub e (containing 1 mg of Aβ42) was added 180 μL of DMSO and 720 μL of PBS (pH = 7.2-7.4, Hyclone) and 1% hydrox ylamine solution (100 μL); the solution was shaken on a shaker (300 rpm) at 37 °C for 7 da ys to form the Aβ42 aggregates. Initial peptide concentrations were determined spectrophotometricall y at 280 nm, using an extinction coefficient of 1280 M-1cm-1. […]

Hemolysis rate assay = type: cell-based; details: human, human red blood cells separated from whole blood, probe up to 100 µM, room temperature
Method: A cytotoxicity assay is one of the methods to evaluate the biocompatibility of probe molecules. Probes are generally considered to have low cytotoxicity when the cell viability is above 80%. Therefore, the cytotoxicity of TPyrBDP, TPipBDP, and THAIBDP was evaluated using PC12 cells using a standard MTT assay method. […] The hemolysis rate of probes is one of the common methods to evaluate the effect of probes on the blood of live animals. Therefore, the hemolysis rate of probes TPyrBDP, TPipBDP, and THAIBDP with blood samples was also evaluated. […] Therefore, the probes were suitable for subsequent cell experiments and animal experiments.
(§1) In Vitro Brain Slice Fluorescence Staining
The paraffin-embedded blank sections (5 μm) were immersed in x ylene for 5 min for deparaffinization and then washed with ethanol for 2 min and water for 5 min. The brain slices were incubated with 40 μL of 10 mg/ m L ThT for 5 min and washed with 50% ethanol solution for 3 min. Next, the brain sl ices were incubated with 40 μL of 1 μM probes for 20 min. After absorbin g th e residual liquid with dust-free paper, th e antifluorescence attenuating agent was added dropwise, and neutral gum was used for mounting. The slices were then placed under a laser confocal microscope (Lecia SP5) […]
Hemolysis Rate (HR) Assay
Human blood (1 m L, provided b y China-J apan Friendly Hospital, Beijing, China) was first diluted with 2 m L of PBS solution; the sample was centrifugated for 10 min (8000 rpm) and washed with PBS 5 times to separate red blood cells from serum. Finall y, the red blood cells were dispersed in 10 m L of P BS solution, from which 0.2 m L was taken, and 0.8 m L of different reagents (P BS, DI water, and 10, 20, 30, 50, and 100 μM of probes) was added. After mix ing evenl y, the samples were allowed to stand still for 3 h at room temperature and centrifuged (12,000 rpm, 5 min) to determine hemolysis circumstances. The supernatant (100 μL) was transferred to 96-well plates, and its ultraviolet absorption (Ex = 490 nm) was evaluated. […]

Aβ aggregates = details: reported probe; ref (8); cited from earlier work
Aβ1–42 aggregates [4] = target: T1, Aβ1–42 aggregates; test: In vitro Aβ42 aggregate staining in solution (CLSM); type: binding; details: probe 5 µM, ThT 10 µM
Method: In Vitro Aβ42 staining in solution
Aβ42 aggregates were prepared according to the literature reported method 2. Aβ42
aggregate solution (20 μL) was added dropwise to a slide (CITOTEST), and then spread
until dry. ThT (10 μM, 20 μL) was added dropwise and spread until it was dry. Prob es
were added dropwise and spread until dr y. Anti-fluorescence quenchin g reagent (10-20
μL) was added dropwise and covered with a cover slide. The fluorescence signal was
captured b y C LSM. λex (ThT) = 488 nm, λem (ThT) = 508-550 nm; λex (probe) = 633 nm,

[5] = target: Aβ plaques in brain slices (Homo sapiens, UniProt P05067); test: In vitro brain slice fluorescence staining, co-staining with ThT; details: Tg mice slices, 13-month-old, female
Method: To confirm whether the probes could bind Aβ deposits in brain slices, the fluorescence staining experiment were performed using slices of Tg mice (13‐month‐old, female). The staining results were imaged using CLSM. To ensure the accuracy of the staining results, commercial fluorescent dye ThT was used to co‐stain the same sections. The fluorescence signals of the slices were acquired at the same position using different channels of the CLSM. As shown in Figure 4 and Figure S27–S29, Supporting Information, Aβ plaques were highlighted by the probes with a high signal‐to‐background ratio. In contrast, there was no fluorescence signal for wild‐type slices (Figures S30–S32, Supporting Information). Since Aβ plaques are abundantly produced in the hippocampal and cortical regions of the brain, we imaged the corresponding regions of the slices, respectively. The staining results with ThT (Figure 4a,b,i,j,q,r) are shown in green, and the staining results of the probes TPyrBDP (Figure 4c,d), TPipBDP (Figure 4k,l), and THAIBDP (Figure 4s,t) are shown in red. All three probes could stain Aβ plaques both in the hippocampal and cortical regions successfully, and the corresponding merged image further confirmed the staining results. To quantify the colocalization effect, the Pearson correlation coefficients (R‐value) were calculated using ImageJ software. The closer the R‐value is to 1, the better the colocalization of the probe and ThT.
as §1
The paraffin-embedded blank sections (5 μm) were immersed in x ylene for 5 min for deparaffinization and then washed with ethanol for 2 min and water for 5 min. […]
Human blood (1 m L, provided b y China-J apan Friendly Hospital, Beijing, China) was first diluted with 2 m L of PBS solution; the sample was centrifugated for 10 min (8000 rpm) and washed with PBS 5 times to separate red blood cells from serum. […] The supernatant (100 μL) was transferred to 96-well plates, and its ultraviolet absorption (Ex = 490 nm) was evaluated. […]

T1 sequence (P05067 672-713 limits assumed): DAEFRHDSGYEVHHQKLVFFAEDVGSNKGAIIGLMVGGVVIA
Sequence of Aβ plaques in brain slices (P05067 672-711 limits assumed): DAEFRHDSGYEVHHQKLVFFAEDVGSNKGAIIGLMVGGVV

Compound	viability at 24 h (Cytotoxicity MTT assay) [%]	Em, with Aβ (Aβ1–42 aggregates [1]) [nm]	Em shift, with Aβ (Aβ1–42 aggregates [1])	λem blueshift after interacting with Aβ1–42 aggregates (Aβ1–42 aggregates [1]; PBS (10% ethanol))	Fluorescence enhancement (Fold = FL intensity probe+Aβ / probe) (Aβ1–42 aggregates [1])	Kd (Aβ1–42 aggregates [2]) [nM]	R-value (colocalization with ThT), probe + Aβ group ([3]; PC12 cells with Aβ1–42 aggregates (10 µM))	R-value (colocalization with ThT), control group ([3]; PC12 cells without Aβ)	hemolysis at 3 h (Hemolysis rate assay) [%]	Kd (Aβ aggregates) [nM]	Staining of Aβ1–42 aggregates in solution (Aβ1–42 aggregates [4])	Pearson correlation coefficient (R-value) with ThT, hippocampus region [5]	λem redshift after interacting with Aβ1–42 aggregates (Aβ1–42 aggregates [1]; PBS (10% ethanol))	Pearson correlation coefficient (R-value) with ThT, cortex region [5]
CC1=CC(C)=[N+]2C1=Cc1c(C)cc(/C=C/c3ccc(N4CCCCC4)s3)n1[B-]2(F)F [TPipBDP]	> 80	692	-27 nm	≈ 27 nm	75.54 fold and 75.5 fold	28.3 ± 5.94	0.84	0.65	< 5					
Cc1cc(/C=C/c2ccc(N(C)C)cc2)n2c1C=C1C=CC=[N+]1[B-]2(F)F [BAP-1]										44.1				
CC1=CC(C)=[N+]2C1=Cc1c(C)cc(/C=C/c3ccc(N4CCCCCC4)s3)n1[B-]2(F)F [THAIBDP]	> 80	701	-22 nm	≈ 22 nm	27.23 fold and 27.2 fold	28.2 ± 3.07			< 5		stained Aβ1–42 aggregates successfully	0.72		
CC1=CC(C)=[N+]2C1=Cc1c(C)cc(/C=C/c3ccc(N4CCCC4)s3)n1[B-]2(F)F [TPyrBDP]	> 80	693	+13 nm		42.48 fold and 42.5 fold	54.2 ± 5.82			< 5		stained Aβ1–42 aggregates successfully	0.87	≈ 13 nm	0.85
